In US9701681B2, “Fused ring heteroaryl compounds and their use as Trk inhibitors” (CMG Pharmaceutical Co., Ltd., priority 2014, dated 2017):

Columns and labels:
TRK A, B & C kinase = target: T1, TRK A, B & C kinase; assay: TRK A, B & C kinase assay (ADP-Glo / HTRF KinEASE-TK); type: biochemical; conditions: ADP-Glo or HTRF KinEASE-TK kit, isoform not specified, read-out: IC50 (nM) Enzymatic assay
T1 construct: fused on or other part: Carna's Trk kinases are usually GST-tagged cytoplasmic domains
Experimental: ADP-Glo assay kit was purchased from Promega. poly (Glu, Tyr), Magnesium sulfate, Bovine serum albumin (BSA) and dimethylsulfoxide(DMSO) were purchased from Sigma-Aldrich. Tris-HCl buffer was purchased from BD Gentest. HTRF KinEASE-TK kit was purchased from cisbio. TRK A, B & C kinase was purchased from Carna bioscience.
Kinase assay was performed for Chemical Compounds 1-61 using two methods using luminescent ADP-Glo assay kit (Promega) and HTRF KinEASE-TK assay kit (cisbio). The luminescent ADP-Glo assay kit (Promega) measures ADP formed from a kinase reaction. ADP converted into ATP, which is then converted into light by Ultra-Glo luciferase. The HTRF KinEASE-TK assay kit (cisbio) measures tyrosine kinase activities using one substrate and a universal detection system.
ADP-Glo Assay Kit (Promega)
The protein kinase assay was performed for Chemical Compounds 1-61 at […] concentrations are 0.4 ng/ul of TrKA, 0.5 ng/ul of TrKB and 3 ng/ul of TrKC, respectively), 5 μL of 1 ug/ul stock solution of poly(glu, Tyr), 5 μL of compounds or assay buffer, 5 μL of ATP (125 μM stock solution).
The assay was started by incubating the reaction mixture in a 96-well plate at 30° C. for 1 hr. After the incubation, the assay was terminated by the addition of 25 […] Detection Reagent was added, and the 96-well plate was shaken and then incubated for additional 30 min at ambient temperature. The 96-well reaction plate was then read on an Enspire plate reader. The IC50 values were derived through a curve fitting using SigmaPlot.
HTRF KinEASE-TK Assay Kit (Cisbio)
The HTRF KinEASE-TK assay was performed for Chemical Compounds 1-61 in 384-well low volume microplate (Greiner). The HTRF KinEASE-TK assay format involves the two steps. The first step is kinase reaction step. This kinase reaction step was performed at RT (room temperature) in final volume of 10 ul according to the following assay reaction recipe: 10 ul of kinase mixture (Kinase (2 ul)+ATP (2 ul)+Substrate (2 ul)+Compound (4 ul)). Kinase final concentrations were 0.3 ng/ul of TRKA, 0.1 ng/ul of TRKB, 0.03 ng/ul of TRKC, respectively. ATP final concentrations were 14.7 uM (TRKA), 4.77 uM (TRKB), 25.6 uM (TRKC) respectively. TK-substrate final concentration was 0.3 ng/ul. The mixtures exposed to Dose response concentration (DRC) compound from 0 to 100 nM for 40 min. During the kinase reaction step, the kinase reaction was started by the addition of ATP. Kinase phosphorylates the substrate.
The second is detection step. 10 ul of detection reagents (5 ul Sa-XL 665 in EDTA+5 ul TK Antibody-Eu in EDTA) was added to kinase mixture. This step was performed at room temperature for 1 hr. The detection reagent detects phosphorylated substrates.
Finally 384-well reaction plate was then read on FlexStation 3 machine. The fluorescence was measured at 620 nm (Cryptate) and 665 nm (XL665). A ratio is calculated ([…]/620)×10^4 for each well. The IC50 value was derived through a curve fitting using GraphPad Prism. Table 1 below includes the results of the assays.

TF-1 cells = assay: Cell proliferation assay (TF-1); conditions: 10 ng/ml human β-NGF, 72 hours exposure, read-out: IC50 (nM) Cell-based assay (TF-1)
Experimental: (§1) Doxorubicin was purchased from Sigma Aldrich (D1515). All compounds were diluted in DMSO (Sigma Aldrich, D2650). AlamarBlue® cell viability reagent was purchased from Thermo Scientific (88952). CellTiter 96® AQueous One Solution Cell proliferation assay was purchased from Promega. KM12-luc cells were obtained from JCRB (National Institute of Health Sciences, Tokyo, Japan). They were maintained in DMEM medium (GIB-11965-118) supplemented with 10% fetal bovine serum (Gibco, 16000-044) and MEM Non-Essential Amino Acids Solution (Thermo Scientific, 11140-050). TF-1 cells were obtained from ATCC. They were maintained in RPMI medium (GIB-A10491) supplemented with 10% fetal bovine serum (Gibco, 16000-044), GM-CSF (Thermo Scientific, 11140-050), and β-NGF (R&D systems). Trypsin/EDTA was purchased from Gibco (GIB-25300-054, 0.05%). 96-well plates were purchased from Corning Inc.
(§2) The proliferation assay was performed for Chemical Compounds 1-61 s in media supplemented with 10% FBS, using AlamarBlue® cell viability reagent or CellTiter 96® AQueous One Solution Cell proliferation assay kit. Cells were cultured in humidified 37° C. incubator with 5% CO2. To evaluate the antiproliferation activity of compounds, TF-1 cells were adjusted to GM-CSF free media (RPMI, 10% FBS, and 1% penicillin-streptomycin) for 16 hr and were seeded in 96-well plates at 30,000 cells/well with medium (RPMI, 10% FBS, 1% penicillin-streptomycin and 10 ng/ml human β-NGF). KM12-luc were seeded at 10,000 cells per well into 96-well plates. After overnight incubation, serial dilutions of compounds were added to triplicate wells, and cells were exposed for 72 hours. The final concentration of DMSO was adjusted to 0.5% in media. Quantitation of cell growth was assessed using two kinds of reagent. 20 ul of AlamarBlue® reagent in an amount equal to 10% of the culture volume was added to each well and were incubated in humidified 37° C. incubator with 5% CO2 for 2 hr. Otherwise, 20 ul of CellTiter 96® reagent was added to each well and were incubated in the same conditions as previously described. Data were plotted, and GI50 values were calculated using GraphPad software. Table 1 below includes the results of the assays.

KM12-luc cells = assay: Cell proliferation assay (KM12); conditions: 72 hours exposure, read-out: IC50 (nM) Cell-based assay (KM12)
Experimental: as §1, §2

IC50 (TRK A, B & C kinase) [nM]	Compound	IC50 (TF-1 cells) [nM]	IC50 (KM12-luc cells) [nM]
< 10	Cc1nnc(-c2cnn3ccc(N4CCCC4c4cc(F)ccc4F)nc23)o1 (stereo not drawn) [Chemical Compound 1, 2-(5-(2-(2,5-difluorophenyl)pyrrolidin-1-yl)pyrazolo[1,5-a]pyrimidin-3-yl)-5-methyl-1,3,4-oxadiazole]	< 100	< 100
< 10	Cc1nnc(-c2cnn3ccc(N4CCCC4c4cc(F)ccc4F)nc23)s1 (stereo not drawn) [Chemical Compound 2, 2-(5-(2-(2,5-difluorophenyl)pyrrolidin-1-yl)pyrazolo[1,5-a]pyrimidin-3-yl)-5-methyl-1,3,4-thiadiazole]	< 10	< 100
< 10	CCc1nnc(-c2cnn3ccc(N4CCCC4c4cc(F)ccc4F)nc23)o1 (stereo not drawn) [Chemical Compound 3, 2-(5-(2-(2,5-difluorophenyl)pyrrolidin-1-yl)pyrazolo[1,5-a]pyrimidin-3-yl)-5-ethyl-1,3,4-oxadiazole]	< 10	< 100
< 10	CCc1nnc(-c2cnn3ccc(N4CCCC4c4cc(F)ccc4F)nc23)s1 (stereo not drawn) [Chemical Compound 4, 2-(5-(2-(2,5-difluorophenyl)pyrrolidin-1-yl)pyrazolo[1,5-a]pyrimidin-3-yl)-5-ethyl-1,3,4-thiadiazole]	< 10	< 100
< 10	CC(C)c1nnc(-c2cnn3ccc(N4CCCC4c4cc(F)ccc4F)nc23)o1 (stereo not drawn) [Chemical Compound 5, 2-(5-(2-(2,5-difluorophenyl)pyrrolidin-1-yl)pyrazolo[1,5-a]pyrimidin-3-yl)-5-isopropyl-1,3,4-oxadiazole]	< 10	< 10
< 10	CC(C)c1nnc(-c2cnn3ccc(N4CCCC4c4cc(F)ccc4F)nc23)s1 (stereo not drawn) [Chemical Compound 6, 2-(5-(2-(2,5-difluorophenyl)pyrrolidin-1-yl)pyrazolo[1,5-a]pyrimidin-3-yl)-5-isopropyl-1,3,4-thiadiazole]	< 10	< 10
< 10	Fc1ccc(F)c(C2CCCN2c2ccn3ncc(-c4nnc(C5CC5)o4)c3n2)c1 (stereo not drawn) [Chemical Compound 7, 2-cyclopropyl-5-(5-(2-(2,5-difluorophenyl)pyrrolidin-1-yl)pyrazolo[1,5-a]pyrimidin-3-yl)-1,3,4-oxadiazole]	< 10	< 100
< 10	Fc1ccc(F)c(C2CCCN2c2ccn3ncc(-c4nnc(C5CC5)s4)c3n2)c1 (stereo not drawn) [Chemical Compound 8, 2-cyclopropyl-5-(5-(2-(2,5-difluorophenyl)pyrrolidin-1-yl)pyrazolo[1,5-a]pyrimidin-3-yl)-1,3,4-thiadiazole]	< 10	< 100
< 10	CC(C)(C)c1nnc(-c2cnn3ccc(N4CCCC4c4cc(F)ccc4F)nc23)o1 (stereo not drawn) [Chemical Compound 9, 2-tert-butyl-5-(5-(2-(2,5-difluorophenyl)pyrrolidin-1-yl)pyrazolo[1,5-a]pyrimidin-3-yl)-1,3,4-oxadiazole]	< 10	< 10
< 10	CC(C)(C)c1nnc(-c2cnn3ccc(N4CCCC4c4cc(F)ccc4F)nc23)s1 (stereo not drawn) [Chemical Compound 10, 2-tert-butyl-5-(5-(2-(2,5-difluorophenyl)pyrrolidin-1-yl)pyrazolo[1,5-a]pyrimidin-3-yl)-1,3,4-thiadiazole]	< 10	< 10
< 10	Cc1nnc(-c2cnn3ccc(N4CCCC4c4cncc(F)c4)nc23)s1 (stereo not drawn) [Chemical Compound 11, 2-(5-(2-(5-fluoropyridin-3-yl)pyrrolidin-1-yl)pyrazolo[1,5-a]pyrimidin-3-yl)-5-methyl-1,3,4-thiadiazole]	< 100	< 100
< 10	CCc1nnc(-c2cnn3ccc(N4CCCC4c4cncc(F)c4)nc23)s1 (stereo not drawn) [Chemical Compound 12, 2-ethyl-5-(5-(2-(5-fluoropyridin-3-yl)pyrrolidin-1-yl)pyrazolo[1,5-a]pyrimidin-3-yl)-1,3,4-thiadiazole]	< 100	< 100
< 10	CC(C)c1nnc(-c2cnn3ccc(N4CCCC4c4cncc(F)c4)nc23)s1 (stereo not drawn) [Chemical Compound 13, 2-(5-(2-(5-fluoropyridin-3-yl)pyrrolidin-1-yl)pyrazolo[1,5-a]pyrimidin-3-yl)-5-isopropyl-1,3,4-thiadiazole]	< 100	< 100
< 10	Fc1cncc(C2CCCN2c2ccn3ncc(-c4nnc(C5CC5)s4)c3n2)c1 (stereo not drawn) [Chemical Compound 14, 2-cyclopropyl-5-(5-(2-(5-fluoropyridin-3-yl)pyrrolidin-1-yl)pyrazolo[1,5-a]pyrimidin-3-yl)-1,3,4-thiadiazole]	< 100	< 100
< 10	CC(C)(C)c1nnc(-c2cnn3ccc(N4CCCC4c4cncc(F)c4)nc23)s1 (stereo not drawn) [Chemical Compound 15, 2-tert-butyl-5-(5-(2-(5-fluoropyridin-3-yl)pyrrolidin-1-yl)pyrazolo[1,5-a]pyrimidin-3-yl)-1,3,4-thiadiazole]	< 100	< 100
< 10	O=C(/C=C/c1cnn2ccc(N3CCC[C@@H]3c3cc(F)ccc3F)nc12)N1CC[C@H](O)C1 [Chemical Compound 60, (E)-3-(5-((R)-2-(2,5-difluorophenyl)pyrrolidin-1-yl)pyrazolo[1,5-a]pyrimidin-3-yl)-1-((S)-3-hydroxypyrrolidin-1-yl)prop-2-en-1-one]	–	< 100
< 10	(E)-3-(5-((R)-2-(2,5-difluorophenyl)pyrrolidin-1-yl)pyrazolo[1,5-a]pyrimidin-3-yl)-1-((R)-3-hydroxypyrrolidin-1-yl)prop-2-en-1-one [Chemical Compound 59]	–	< 100
< 10	(R,E)-3-(5-(2-(2,5-difluorophenyl)pyrrolidin-1-yl)pyrazolo[1,5-a]pyrimidin-3-yl)-1-(4-hydroxypiperidin-1-yl)prop-2-en-1-one [Chemical Compound 57]	–	< 100
